PMC4400119 (Cancer chemotherapy and pharmacology, 2014)
Where two headings read alike, the source gives them in different places.

What was measured:
NCI-60 panel [1] = settings: average response from all cell lines tested, cited from earlier work; for GI50: read-out: Potency, Mean GI50
HepG2 [2] = assay: MTT cell viability assay, HepG2; assay type: cell-based, human
Huh-7 [3] = assay: MTT cell viability assay, Huh-7; assay type: cell-based; settings: Homo sapiens, Huh-7, 72 h, read-out: EC50 cell viability, Liver Huh-7
ACHN = assay: MTT cell viability assay, ACHN; assay type: cell-based; settings: Homo sapiens, 72 h, read-out: EC50 cell viability, Kidney ACHN
PC-3 = assay: MTT cell viability assay, PC-3; assay type: cell-based; settings: Homo sapiens, PC-3, 72 h, read-out: EC50 cell viability, Prostate PC-3
T47D = assay: MTT cell viability assay, T47D; assay type: cell-based; settings: Homo sapiens, 72 h, read-out: EC50 cell viability, Breast T47D
SKBR3 = assay: MTT cell viability assay, SKBR3; assay type: cell-based; settings: Homo sapiens, SK-BR-3, 72 h, read-out: EC50 cell viability, Breast SKBR3
KM12 (colon cancer) = assay: NCI-60 human tumor cell line screen, KM12; assay type: cell-based
FGFR2 = FGFR2 (Homo sapiens, UniProt P21802); assay: KinaseSeeker kinase screen, FGFR2; assay type: binding; settings: 10 μM, compared with sorafenib
EPHA1 = target: T1, EPHA1 (Homo sapiens, UniProt P21709); assay: KinaseSeeker kinase screen, EPHA1; assay type: binding; settings: 10 μM, compared with sorafenib
T1 sequence (P21709 26-976): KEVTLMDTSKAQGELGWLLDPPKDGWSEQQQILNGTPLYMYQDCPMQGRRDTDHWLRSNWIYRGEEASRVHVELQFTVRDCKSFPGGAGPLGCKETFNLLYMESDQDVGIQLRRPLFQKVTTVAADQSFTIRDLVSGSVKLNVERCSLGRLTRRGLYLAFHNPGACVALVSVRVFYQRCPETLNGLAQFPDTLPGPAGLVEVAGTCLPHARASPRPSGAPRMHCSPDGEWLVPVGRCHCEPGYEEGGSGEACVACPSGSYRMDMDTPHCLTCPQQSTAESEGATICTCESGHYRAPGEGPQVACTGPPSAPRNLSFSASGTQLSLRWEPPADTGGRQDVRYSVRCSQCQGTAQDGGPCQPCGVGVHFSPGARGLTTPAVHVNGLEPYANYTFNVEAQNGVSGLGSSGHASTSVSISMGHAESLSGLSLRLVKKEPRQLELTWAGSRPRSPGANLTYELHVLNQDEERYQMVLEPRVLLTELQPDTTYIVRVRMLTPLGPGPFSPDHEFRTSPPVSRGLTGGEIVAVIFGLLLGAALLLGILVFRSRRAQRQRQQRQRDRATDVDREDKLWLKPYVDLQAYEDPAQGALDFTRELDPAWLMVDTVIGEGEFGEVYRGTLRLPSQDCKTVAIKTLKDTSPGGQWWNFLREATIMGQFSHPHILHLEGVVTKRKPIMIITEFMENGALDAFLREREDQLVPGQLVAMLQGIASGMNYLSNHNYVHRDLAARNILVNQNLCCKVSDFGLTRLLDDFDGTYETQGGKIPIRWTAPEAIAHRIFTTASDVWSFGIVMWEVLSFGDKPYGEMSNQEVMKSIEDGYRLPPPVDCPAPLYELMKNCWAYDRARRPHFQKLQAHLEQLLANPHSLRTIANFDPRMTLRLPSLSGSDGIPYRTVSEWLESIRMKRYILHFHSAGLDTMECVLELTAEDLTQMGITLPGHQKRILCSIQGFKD

STAT3 phosphorylation = assay: Western blot, STAT3 phosphorylation; assay type: cell-based, human; settings: 10 μM, 24 h exposure
HepG2 [4] = assay: Caspase-Glo 3/7 induction, HepG2; assay type: cell-based, human
Huh-7 [5] = assay: Caspase-Glo 3/7 induction, Huh-7; assay type: cell-based, human
HepG2 cells [6] = assay: Cell viability with pan-caspase inhibitor Z-VAD-FMK co-treatment; assay type: cell-based, human; settings: Z-VAD-FMK 20 μM pre-incubation 60 min, then 30 μM compound for 24 h
HepG2 cells [7] = assay: Mitochondrial membrane depolarization and AIF release; assay type: cell-based, human; settings: 30 μM, 6 h
HepG2 cells [8] = assay: Cell cycle analysis; assay type: cell-based, human; settings: 30 μM, 24-h exposure
[9] = Pharmacokinetic study, cassette oral administration in mice; assay type: in vivo; settings: oral 1 mg/kg
NCI-60 panel [10] = settings: average response from all cell lines tested
Raf-1 kinase = settings: read-out: IC50 recombinant Raf-1 kinase inhibition; cited from earlier work
[11] = system: oncogenic b-Raf (V600E) kinase; settings: relative to sorafenib; cited from earlier work
[12] = target: soluble epoxide hydrolase (sEH); settings: read-out: IC50 against sEH; cited from earlier work

Sequence of FGFR2 (P21802 22-821): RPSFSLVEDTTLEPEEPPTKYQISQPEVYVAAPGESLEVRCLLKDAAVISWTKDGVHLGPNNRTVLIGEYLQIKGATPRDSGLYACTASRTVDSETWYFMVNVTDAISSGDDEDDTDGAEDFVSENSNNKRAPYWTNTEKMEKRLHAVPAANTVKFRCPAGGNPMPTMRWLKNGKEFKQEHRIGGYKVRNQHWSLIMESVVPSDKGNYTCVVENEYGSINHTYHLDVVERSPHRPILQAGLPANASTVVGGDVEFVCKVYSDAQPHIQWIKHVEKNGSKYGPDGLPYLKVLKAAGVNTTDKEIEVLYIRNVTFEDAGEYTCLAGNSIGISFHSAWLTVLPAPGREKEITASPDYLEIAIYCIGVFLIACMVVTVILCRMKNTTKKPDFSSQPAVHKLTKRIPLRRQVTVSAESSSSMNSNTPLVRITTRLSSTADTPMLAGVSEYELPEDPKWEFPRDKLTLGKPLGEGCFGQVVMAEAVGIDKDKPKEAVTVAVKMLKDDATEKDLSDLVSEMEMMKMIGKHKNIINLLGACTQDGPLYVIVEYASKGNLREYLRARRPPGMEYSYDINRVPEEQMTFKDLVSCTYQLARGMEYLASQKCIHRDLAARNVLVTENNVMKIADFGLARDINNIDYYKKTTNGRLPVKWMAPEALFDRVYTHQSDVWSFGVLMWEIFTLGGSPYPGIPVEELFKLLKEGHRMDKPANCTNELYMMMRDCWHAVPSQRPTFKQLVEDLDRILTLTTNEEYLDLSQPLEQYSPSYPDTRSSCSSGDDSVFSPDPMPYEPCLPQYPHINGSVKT

In the case of `Cc1ccc(NC(=O)c2ccc(CN3CCN(C)CC3)cc2)cc1Nc1nccc(-c2cccnc2)n1` [Imatinib (Gleevac®)], the “Potency, Mean TGI50” value (NCI-60 panel [1]) is given as 43 µM and the GI50 (NCI-60 panel [1]) is given as 15 µM.

For `C#Cc1cccc(Nc2ncnc3cc(OCCOC)c(OCCOC)cc23)c1` [Erlotinib (Tarceva®)], the “Potency, Mean TGI50” value (NCI-60 panel [1]) is given as 59 µM and the GI50 (NCI-60 panel [1]) is given as 5.5 µM.

`CCN(CC)CCNC(=O)c1c(C)[nH]c(/C=C2\C(=O)Nc3ccc(F)cc32)c1C` [Sunitinib] showed an EC50 (HepG2 [2]; Homo sapiens, HepG2, 72 h, read-out: EC50 cell viability, Liver HepG2) of 7.5 ± 0.8 µM, an EC50 (Huh-7 [3]) of 8 ± 0.9 µM and an EC50 (ACHN) of 8 ± 1 µM. It also gave an EC50 (PC-3) of 8 ± 0.5 µM, an EC50 (T47D) of 12 ± 1 µM and an EC50 (SKBR3) of 10 ± 0.9 µM. The “Potency, Mean TGI50” value (NCI-60 panel [1]) was 9.6 µM and the GI50 (NCI-60 panel [1]) was 2.2 µM.

In the case of `CNC(=O)c1cc(O[C@H]2CC[C@H](NC(=O)Nc3ccc(Cl)c(C(F)(F)F)c3)CC2)ccn1` [t-CUPM], the “EC50 relative to that of sorafenib” value (HepG2 [2]; cell viability, hepatoma cell lines HepG2 and Huh-7) is reported as “< twofold”, the GI50 (KM12 (colon cancer)) is reported as 0.64 µM and the “kinase inhibitory activity toward FGFR2” value (FGFR2) is reported as “reduced its kinase inhibitory activity”. The “kinase inhibitory activity toward EPHA1” value (EPHA1) was “reduced its kinase inhibitory activity”, the “suppression of STAT3 phosphorylation” value (STAT3 phosphorylation) was “not as effective as sorafenib” and the “caspase 3/7 induction” value (HepG2 [4]; HepG2, 25 μM, 72-h incubation) was “levels of caspase induction similar to sorafenib”. For the same compound, the “caspase 3/7 induction” value (Huh-7 [5]; Huh-7, 25 μM, 72-h incubation) was “levels of caspase induction similar to sorafenib”, the “effect of Z-VAD-FMK on compound-induced cell death” value (HepG2 cells [6]) was “no protective effect” and the “mitochondrial membrane depolarization and release of AIF” value (HepG2 cells [7]) was “observed”. The “effect on cell cycle progression” value (HepG2 cells [8]) was “arrest in G0/G1 transition”, the “Cmax compared with sorafenib” value [9] was “higher Cmax” and the “AUCt compared with sorafenib” value ([9]; 0.5 to 48 h) was “significantly higher AUCt”. For the same compound, the “blood levels relative to sorafenib” value ([9]; from 0.5 to 48 h) was “tenfold”, the “Potency, Mean TGI50” value (NCI-60 panel [10]) was 34 µM and the GI50 (NCI-60 panel [10]; read-out: Potency, Mean GI50) was 9 µM. For the same compound, the IC50 (Raf-1 kinase) was 0.075 µM and the “loss in the activity toward oncogenic b-Raf (V600E) kinase” value [11] was 40 fold.

`CNC(=O)c1cc(Oc2ccc(NC(=O)Nc3ccc(Cl)c(C(F)(F)F)c3)cc2)ccn1` [Sorafenib] gave an EC50 (Huh-7 [3]) of 4.2 ± 0.5 µM, an EC50 (ACHN) of 4 ± 0.5 µM and an EC50 (PC-3) of 5.5 ± 0.8 µM. The EC50 (T47D) was 3 ± 0.5 µM, the EC50 (SKBR3) was 6.5 ± 0.5 µM and the “lowest level at which caspase activation was observable” value (HepG2 [4]; HepG2, 72-h incubation) was 0.1 µM. For the same compound, the “lowest level at which caspase activation was observable” value (Huh-7 [5]; Huh-7, 72-h incubation) was 0.1 µM, the “effect of Z-VAD-FMK on compound-induced cell death” value (HepG2 cells [6]) was “no protective effect” and the “mitochondrial membrane depolarization and release of AIF” value (HepG2 cells [7]) was “observed”. For the same compound, the “Potency, Mean TGI50” value (NCI-60 panel [1]) was 6.0 µM, the GI50 (NCI-60 panel [1]) was 1.9 µM and the IC50 [12] was 0.012 µM. For the same compound, the IC50 (Raf-1 kinase) was […].

For `COc1cc2ncnc(Nc3ccc(F)c(Cl)c3)c2cc1OCCCN1CCOCC1` [Gefitinib (Iressa®)], the “Potency, Mean TGI50” value (NCI-60 panel [1]) is given as 19 µM and the GI50 (NCI-60 panel [1]) is given as 3.2 µM.
